The first series addresses KATP-channels on pancreatic beta-cells (Homo sapiens, UniProt Q09428). Conditions: by activation of KATP-channels; cited from earlier work.
Chain of KATP-channels on pancreatic beta-cells (Q09428 whole entry): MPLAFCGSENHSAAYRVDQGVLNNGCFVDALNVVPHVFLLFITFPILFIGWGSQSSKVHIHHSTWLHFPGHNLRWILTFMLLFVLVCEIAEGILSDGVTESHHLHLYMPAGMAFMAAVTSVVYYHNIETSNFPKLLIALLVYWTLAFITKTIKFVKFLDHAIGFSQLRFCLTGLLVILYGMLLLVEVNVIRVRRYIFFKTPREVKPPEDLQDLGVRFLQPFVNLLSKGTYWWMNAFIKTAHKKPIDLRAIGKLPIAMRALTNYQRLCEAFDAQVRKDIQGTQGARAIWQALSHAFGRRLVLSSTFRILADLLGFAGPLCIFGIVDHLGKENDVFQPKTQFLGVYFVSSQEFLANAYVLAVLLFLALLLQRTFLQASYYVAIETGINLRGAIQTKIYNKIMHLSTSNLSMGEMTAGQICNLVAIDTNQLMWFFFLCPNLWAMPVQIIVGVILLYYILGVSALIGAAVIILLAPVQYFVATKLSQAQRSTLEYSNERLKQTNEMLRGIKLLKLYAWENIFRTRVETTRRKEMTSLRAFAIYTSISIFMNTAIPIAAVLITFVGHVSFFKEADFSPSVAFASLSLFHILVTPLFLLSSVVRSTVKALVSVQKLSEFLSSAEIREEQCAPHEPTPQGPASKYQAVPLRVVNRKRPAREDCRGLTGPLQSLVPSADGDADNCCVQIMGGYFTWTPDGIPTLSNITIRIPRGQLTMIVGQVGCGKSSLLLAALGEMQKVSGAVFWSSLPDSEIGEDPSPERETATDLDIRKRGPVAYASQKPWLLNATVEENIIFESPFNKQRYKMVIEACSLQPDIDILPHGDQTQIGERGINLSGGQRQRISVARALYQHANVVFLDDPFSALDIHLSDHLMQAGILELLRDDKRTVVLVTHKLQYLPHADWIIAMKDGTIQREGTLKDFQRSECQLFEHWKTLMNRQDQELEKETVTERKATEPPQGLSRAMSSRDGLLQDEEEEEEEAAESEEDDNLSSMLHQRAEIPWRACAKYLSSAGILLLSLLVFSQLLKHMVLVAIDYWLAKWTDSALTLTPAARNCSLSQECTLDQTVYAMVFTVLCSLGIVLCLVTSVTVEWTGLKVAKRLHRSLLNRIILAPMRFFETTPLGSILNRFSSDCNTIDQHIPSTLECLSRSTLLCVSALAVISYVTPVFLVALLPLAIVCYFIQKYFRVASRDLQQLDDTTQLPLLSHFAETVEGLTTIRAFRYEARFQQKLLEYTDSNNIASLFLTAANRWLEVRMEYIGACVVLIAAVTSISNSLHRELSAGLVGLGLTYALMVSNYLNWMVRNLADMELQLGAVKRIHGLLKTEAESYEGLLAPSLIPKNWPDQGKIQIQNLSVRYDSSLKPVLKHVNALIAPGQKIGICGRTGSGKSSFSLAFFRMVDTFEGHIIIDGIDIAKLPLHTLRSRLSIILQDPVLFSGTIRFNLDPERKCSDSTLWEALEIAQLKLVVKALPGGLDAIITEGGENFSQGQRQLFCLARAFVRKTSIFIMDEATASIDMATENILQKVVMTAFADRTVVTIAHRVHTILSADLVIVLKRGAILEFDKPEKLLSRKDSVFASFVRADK
Chain of KATP-channels on pancreatic beta-cells (Q14654 whole entry partner): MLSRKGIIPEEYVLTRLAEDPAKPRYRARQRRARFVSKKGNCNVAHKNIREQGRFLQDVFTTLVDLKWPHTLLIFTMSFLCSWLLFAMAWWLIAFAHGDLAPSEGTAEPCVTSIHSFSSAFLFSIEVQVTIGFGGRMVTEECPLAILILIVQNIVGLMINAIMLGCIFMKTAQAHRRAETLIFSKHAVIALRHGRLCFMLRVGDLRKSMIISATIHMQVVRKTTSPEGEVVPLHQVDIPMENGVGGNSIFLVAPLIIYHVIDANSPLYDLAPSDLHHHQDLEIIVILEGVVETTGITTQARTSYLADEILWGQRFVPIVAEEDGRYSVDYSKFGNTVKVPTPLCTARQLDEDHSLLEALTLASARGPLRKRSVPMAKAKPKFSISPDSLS
As to `CC1=Nc2ccc(Cl)cc2S(=O)(=O)N1` [diazoxide, 7-chloro-3-methyl-2H-1,2,4-benzothiadiazine 1,1-dioxide], the insulin release entry was “inhibit insulin release”.

In the next series the test system is BB-rats. Particulars: cited from earlier work.
`CC1=Nc2ccc(Cl)cc2S(=O)(=O)N1` [diazoxide, 7-chloro-3-methyl-2H-1,2,4-benzothiadiazine 1,1-dioxide]: the onset of diabetes entry was “delay the onset of diabetes”.

System in another series: not given
Conditions: not given
`CC(NC(Nc1cc(C(F)(F)F)cc(C(F)(F)F)c1)=C(C#N)S(=O)(=O)c1ccc(Cl)cc1)C(C)(C)C` (centres unmarked) [Example 1, 3-[3,5-bis(trifluoromethyl)phenylamino]-2-(4-chlorophenylsulfonyl)-3-(1,2,2-trimethylpropylamino)-2-propenenitrile]: the melting point (as a rule, the temperature, or range, at which the solid turns liquid) lay in the range of 155.5 to 158.5 °C.

As for `N#CC(=C(Nc1cc(C(F)(F)F)cc(C(F)(F)F)c1)NC1CCCC1)S(=O)(=O)c1ccc(Cl)cc1` [Example 2, 3-[3,5-Bis(trifluoromethyl)phenylamino]-2-(4-chlorophenylsulfonyl)-3-cyclopentylamino2-propenenitrile], the melting point was 199 to 200 °C.

Compound `CC(C)NC(Nc1cc(C(F)(F)F)cc(C(F)(F)F)c1)=C(C#N)S(=O)(=O)c1ccc(Cl)cc1` [Example 3, 3-[3,5-Bis(trifluoromethyl)phenylamino]-2-(4-chlorophenylsulfonyl)-3-isopropylamino-2-propenenitrile] came in with a melting point of 197 to 198.5 °C.

As to `N#CC(=C(Nc1cc(C(F)(F)F)cc(C(F)(F)F)c1)NC1CCC1)S(=O)(=O)c1ccc(Cl)cc1` [Example 4, 3-[3,5-Bis(trifluoromethyl)phenylamino]-2-(4-chlorophenylsulfonyl)-3-cyclobutylamino-2-propenenitrile], the melting point fell in the range of 190.5 to 193 °C.

As for `CCCNC(Nc1cc(C(F)(F)F)cc(C(F)(F)F)c1)=C(C#N)S(=O)(=O)c1ccc(Cl)cc1` [Example 5, 3-[3,5-Bis(trifluoromethyl)phenylamino]-2-(4-chlorophenylsulfonyl)-3-propylamino2-propenenitrile], the melting point lay in the range of 196.5 to 198.5 °C.

Consider `CC(NC(Nc1cc(Cl)cc(Cl)c1)=C(C#N)S(=O)(=O)c1ccc(Cl)cc1)C(C)(C)C` (centres unmarked) [Example 7, 2-(4-Chlorophenylsulfonyl)-3-(3,5-dichlorophenylamino)-3-(1,2,2-trimethylpropylamino)-2-propenenitrile], for which the melting point was in the range of 163 to 169 °C.

On to `CC(NC(Nc1cc(C(F)(F)F)cc(C(F)(F)F)c1)=C(C#N)S(C)(=O)=O)C(C)(C)C` (centres unmarked) [Example 9, 3-(3,5-Bis(trifluoromethyl)phenylamino)-2-methylsulfonyl-3-(1,2,2-trimethylpropylamino)-propenenitrile], for which the melting point fell in the range of 184.5 to 188.5 °C.

In turn, `COc1cc(NC(NC(C)C(C)(C)C)=C(C#N)S(=O)(=O)c2ccc(Cl)cc2)cc(OC)c1` (centres unmarked) [Example 10, 2-(4-Chlorophenylsulfonyl)-3-(3,5-dimethoxyphenylamino)-3-(1,2,2-trimethylpropylamino)-2-propenenitrile] showed a melting point of 177.5 to 179 °C.

`CC(NC(=C(C#N)S(=O)(=O)c1ccc(Cl)cc1)N(C)c1cc(C(F)(F)F)cc(C(F)(F)F)c1)C(C)(C)C` (centres unmarked) [Example 11, 3-[N-(3,5-bis(trifluoromethyl)phenyl)-N-methylamino]-2-(4-chlorophenylsulfonyl)-3-(1,2,2-trimethylpropylamino)-2-propenenitrile] came in with a melting point of 151.5 to 154 °C.

On to `CCC(C)(C)NC(Nc1cc(C(F)(F)F)cc(C(F)(F)F)c1)=C(C#N)S(=O)(=O)c1ccc(Cl)cc1` [Example 17, 3-[3,5-Bis(trifluoromethyl)phenylamino]-2-(4-chlorophenylsulfonyl)-3-(1,1-dimethylpropylamino)-2-propenenitrile], for which the melting point fell in the range of 205 to 207 °C.

Consider `C[C@@H](NC(Nc1cc(C(F)(F)F)cc(C(F)(F)F)c1)=C(C#N)S(=O)(=O)c1ccc(Cl)cc1)C(C)(C)C` [Example 19, (R)-3-[3,5-bis(trifluoromethyl)phenylamino]-2-(4-chlorophenylsulfonyl)-3-(1,2,2-trimethylpropylamino)-2-propenenitrile], for which the melting point lay within 164 to 165 °C.

For the compound `CC(C)NC(Nc1cc(C(F)(F)F)cc(C(F)(F)F)c1)=C(C#N)S(C)(=O)=O` [Example 20, 3-(3,5-Bis(trifluoromethyl)phenylamino)-3-isopropylamino-2-methylsulfonyl-propenenitrile], the melting point lay within 188.5 to 191 °C.

The compound `C[C@@H](NC(Nc1cc(C(F)(F)F)cc(C(F)(F)F)c1)=C(C#N)S(C)(=O)=O)C(C)(C)C` [Example 21, (R)-3-[3,5-bis(trifluoromethyl)phenylamino]-2-methanesulfonyl-3-(1,2,2-trimethylpropylamino)-2-propenenitrile] registered a melting point of 181 to 181.5 °C.

The compound `C[C@H](NC(Nc1cc(C(F)(F)F)cc(C(F)(F)F)c1)=C(C#N)S(C)(=O)=O)C(C)(C)C` [Example 22, (S)-3-[3,5-bis(trifluoromethyl)phenylamino]-2-methanesulfonyl-3-(1,2,2-trimethylpropylamino)-2-propenenitrile] displayed a melting point of 180.5 to 181.5 °C.

For `CCC(C)(C)NC(Nc1cc(OC)cc(OC)c1)=C(C#N)S(=O)(=O)c1ccc(Cl)cc1` [Example 23, 2-(4-Chlorophenylsulfonyl)-3-(3,5-dimethoxyphenylamino)-3-(1,1-dimethylpropylamino)-2-propenenitrile], the melting point fell in the range of 189 to 190 °C.

As to `COc1cc(NC(NC2CCC2)=C(C#N)S(=O)(=O)c2ccc(Cl)cc2)cc(OC)c1` [Example 24, 2-(4-Chlorophenylsulfonyl)-3-(3,5-dimethoxyphenylamino)3cyclobutylamino-2-propenenitrile], the melting point was 163.5 to 164.5 °C.

`CCC(C)(C)NC(Nc1ccc2c(c1)OCO2)=C(C#N)S(=O)(=O)c1ccc(Cl)cc1` [Example 27, 3-(Benzo[1,3]dioxol-5-ylamino)-3-(1,1-dimethyl-propylamino)-2-(4-chloro-phenylsulfonyl)-propenenitrile] showed a melting point of 169 to 170 °C.

Consider `N#CC(=C(Nc1ccc2c(c1)OCO2)NC1CCC1)S(=O)(=O)c1ccc(Cl)cc1` [Example 28, 3-(Benzo[1,3]dioxol-5-ylamino)-3-cyclobutylamino-2-(4-chloro-phenylsulfonyl)-propenenitrile], for which the melting point is 189.5 °C.

`CCC(C)NC(Nc1cc(Cl)cc(Cl)c1)=C(C#N)S(=O)(=O)c1ccc(Cl)cc1` (centres unmarked) [Example 31, 3-sec-Butylamino-2-(4-chlorophenylsulfonyl)-3-(3,5-dichlorophenylamino)-2-propenenitrile] showed a melting point of 150 to 152 °C.

Consider `CC(NC(Nc1cc(F)cc(C(F)(F)F)c1)=C(C#N)S(C)(=O)=O)C(C)(C)C` (centres unmarked) [Example 33, 3-(3-Fluoro-5trifluoromethyl-phenylamino)-2-methylsulfonyl-3-(1,2,2-trimethylpropylamino)-propenenitrile], for which the melting point lay within 183 to 185 °C.

`CC(NC(Nc1ccc(Cl)cc1)=C(C#N)S(C)(=O)=O)C(C)(C)C` (centres unmarked) [Example 34, 3-(4-Chlorophenylamino)-2-methylsulfonyl-3-(1,2,2-trimethylpropylamino)-acrylonitrile] gave a melting point of 160.5 to 161.5 °C.

Regarding `CCC(C)(C)NC(Nc1ccc2ncsc2c1)=C(C#N)S(C)(=O)=O` [Example 35, 3-(Benzothiazol-6-ylamino)-3-(1,1-dimethyl-propylamino)-2-methylsulfonyl-propenenitrile], the melting point lay in the range of 112 to 114 °C.

`CCC(C)(C)NC(Nc1ccc2c(c1)OCO2)=C(C#N)C(=O)C(C)(C)C` [Example 36, 3-(Benzo[1,3]dioxol-5-ylamino)-2-(2,2-dimethyl-propionyl)-3-(1,1-dimethyl-propylamino)-propenenitrile]: the melting point is 161 to 165 °C.

The next series concerns obese zucker rats. Conditions: cited from earlier work.
Regarding `CC1=Nc2ccc(Cl)cc2S(=O)(=O)N1` [diazoxide, 7-chloro-3-methyl-2H-1,2,4-benzothiadiazine 1,1-dioxide], the glucose tolerance result is recorded as “improve glucose tolerance”, the insulin receptor binding entry is “increase insulin receptor binding”, the insulin secretion entry is on record as “decrease insulin secretion” and the weight gain result is given as “decrease weight gain”.

The values are drawn from patent publication US6365609B1, “Substituted 3,3-diamino-2-propenenitriles, their preparation and use” (Novo Nordisk A/S, priority 1998, dated 2002).
